“And” between values parts separate entries of the source, which are not always exact repeats. Equal values may be shown once.
Columns and labels:
[1] = target: T1, human leukocyte 5-lipoxygenase (Homo sapiens, UniProt P09917); assay: 5-lipoxygenase inhibition in human leukocytes, 5-HETE formation (5LOA; methods 5LOA1 and 5LOA2); type: cell-based; conditions: 5-HETE formation, human leukocytes; read-out: Concentration (M) for 50.0 % Inhibition, IC (5LOA)
T1 construct: endogenous in cells; host or cells: intact leukocytes isolated from human blood
T1 sequence (P09917 1-674): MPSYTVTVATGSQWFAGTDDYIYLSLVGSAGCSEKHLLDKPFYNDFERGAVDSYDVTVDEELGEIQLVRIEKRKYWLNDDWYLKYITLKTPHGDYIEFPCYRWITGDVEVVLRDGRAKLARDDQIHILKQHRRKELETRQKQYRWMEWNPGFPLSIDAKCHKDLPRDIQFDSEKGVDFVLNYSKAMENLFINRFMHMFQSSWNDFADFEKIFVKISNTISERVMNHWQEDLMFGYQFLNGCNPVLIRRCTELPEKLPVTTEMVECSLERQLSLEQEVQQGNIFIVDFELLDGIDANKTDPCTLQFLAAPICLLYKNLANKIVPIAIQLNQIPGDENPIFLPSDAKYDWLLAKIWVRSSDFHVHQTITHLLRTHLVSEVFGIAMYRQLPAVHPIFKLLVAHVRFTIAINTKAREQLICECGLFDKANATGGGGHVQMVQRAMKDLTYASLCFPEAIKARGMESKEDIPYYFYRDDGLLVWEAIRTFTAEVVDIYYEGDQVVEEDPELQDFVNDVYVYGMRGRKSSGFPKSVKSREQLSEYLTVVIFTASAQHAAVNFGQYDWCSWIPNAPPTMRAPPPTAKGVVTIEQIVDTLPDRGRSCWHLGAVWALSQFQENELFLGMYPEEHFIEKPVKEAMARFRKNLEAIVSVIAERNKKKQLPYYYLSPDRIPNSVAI
Source text: To Evaluate the Effect of Each Compounds as a 5-Lipoxygenase Inhibitor in Comparison to Standard Reference Agents in Human Leukocytes (5LOA1)
The purpose of this assay is to evaluate the activity of each compound as an inhibitor of human leukocyte 5-lipoxygenase.
Arachidonic acid and calcium ionophore A23187 are obtained from Sigma (St. Louis, MO). Silica gel plates, GF are obtained from Analtech (Newark, DE). Arachidonic acid, (1-^14 C) and 5-HETE (^3 H), 5 (S)-hydroxy-6-trans,8,11,14-cis eicosatetraenoic acid, are obtained from New England Nuclear (Boston, MA). Six percent Dextran-70 in 0.9% NaCl is obtained from Cutter Labs (Berkeley, CA).
Preparation of Leukocytes
Fresh blood from normal adult men who had not received any drugs for at least the previous five days is obtained by the Community Research Clinic (WL/PD) using venipuncture and collected into heparinized vacuotainer tubes. To every 100 ml of pooled blood is added 25 ml of dextran solution (6% dextran -70 in 0.9% sodium chloride containing 3% dextrose) and this is mixed gently in a plastic cylinder. The mixture is left to stand at room temperature for at least 90 minutes. The upper layer which is rich in leukocytes and platelets is then carefully decanted into 50 ml plastic tubes and centrifuged at about 100×g for eight minutes in an IEC centrifuge and rotor number 269 (about 600 rpm). The supernatant fluid is discarded and the pellet is resuspended in 10 ml of 0.87% ammonium chloride for exactly two minutes. This procedure is to lyse completely contaminating red blood cells. Leukocytes are then separated by centrifugation for ten minutes. The pellet is washed three times by suspension in 20 ml PBS (sodium chloride, 7.1 g; Na2 HPO4, 1.15 g; KH2 PO4, 0.2 g, and KCl, 0.2 g/L) and centrifuged as before. The final pellet is suspended in PBS containing 0.87 mM CaCl2. Viability of the cells is then checked using trypan blue exclusion method and is found to be over 90%.
5-Lipoxygenase Enzyme Assay
Leukocyte cells in suspension (0.98 ml) are incubated with or without test compounds for five minutes at 37° C. in a shaking water bath. At this time a 17 μl mixture is prepared per 1 ml of cell suspension: 100 mM arachidonic acid, 1 μl, 0.05 μCi ^14 C-arachidonic acid in 5 μl; 1 mM calcium ionophore A23187, 10 μl (1). This mixture is added and the incubation continued for five minutes. The reaction is stopped by adding four volumes of absolute ethanol and the mixture is kept in ice for 30 minutes. The floculated precipitate is separated by centrifugation at about 37,000×g for 20 minutes (Beckman Instruments rotor number 40). The alcohol extract is taken to dryness under a stream of nitrogen and the residue is dissolved in 100-200 μl absolute ethanol. At the time any turbidity is removed by centrifugation. An aliquot (25-50 μl) is applied onto 20×20 cm silica gel TLC plate and developed using the following solvent system: diethyl ether, petroleum ether (2040° C.), acetic acid (50:50:1 v/v). Zones of 1 cm apart are scraped from the TLC plate and transferred to mini-vials. Methanol (0.5 ml) is added to dissolve the radioactivity adsorbed to the silica gel and scintillation fluid (H. P., Beckman), 5 ml is then added and vials are counted in a liquid scintillation counter. A sample of ^3 H-5-HETE is applied and used for the identification of the formed 5-HETE.
Total radioactivity in the test as well as the control samples are normalized and the amount of 5-HETE present is calculated accordingly.
IC50 values are defined as the concentrations of test agents which caused a 50% inhibition of the formation of 5-HETE as compared to control and are determined by inspection of the concentration-response curves.
5-Lipoxygenase Assay Using Isolated Human Leukocytes (5LOA2)
The formation of 5-HETE in human leukocytes is considered a measure of 5-lipoxygenase activity. The protocol is described in the following. […]

[2] = target: Human Leukocyte Lipoxygenase; assay: Human Leukocyte Lipoxygenase Assay (LDA-H); type: biochemical; conditions: for IC50: acetone-pentane powder enzyme, 234 nm, 24° C., 5 min preincubation, read-out: Concentration (M) for 50.0 % Inhibition, IC (LDAH)
Method: Human Leukocyte Lipoxygenase Assay (LDA-H)
Whole blood is collected from normal volunteers and spun in a refrigerated centrifuge for four minutes at 1°-6° C. at 3800 g. The buffy coat is manually separated and washed twice with chilled 0.83% NH4 Cl and centrifuged at 1000 RPM for ten minutes at 4° C. The white cell is suspended in culture media-EMEM supplemented with 6% Agamma human serum, tricine buffer, and neomycin and recentrifuged at 1000 g to yield a pellet containing the leukocytes used for the preparation of the acetone pentane powder.
The acetone-pentane powder is prepared utilizing a modification of the procedure reported for human platelet lipoxygenase. See Siegel, et al, Arachidonate Metabolism via Lipoxygenase and 12-L-hydroperoxy-5 Eicosatetraenoic Acid Peroxidase Sensitive to Antiinflammatory Drugs, Proc. Natl. Acad. Sci., USA 77: 308, 1980 and D. P. Wallach and V. R. Brown, A Novel Preparation of Human Platlet Lipoxygenase, Biochem. Biophys. Acta. 663: 361, 1981. Buffy coat prepared above is resuspended in 5-7 volumes of cold 0.1M Tris buffer, pH 7.4 containing 0.154M NaCl. The suspension is centrifuged at 13,300 g for ten minutes at 4° C. The resultant pellet is retained, resuspended in five volumes of cold acetone, recentrifuged at 13,300 g and resuspended in five volumes of cold pentane. The pentane suspension is centrifuged for ten minutes at 13,300 g to give a pellet which is dried in the cold under vacuum with periodic pulverization. The dry powder is stable for several weeks when stored at -80° C.
Enzyme stock solution is prepared in the following manner. About 15 mg of the acetone-pentane powder is suspended in 4 ml of cold tris buffer (0.1M, pH 7.4), allowed to stand for five minutes, and homogenized thoroughly. The homogenate is sonicated three times for 15 seconds each time, diluted to 7 ml with cold tris buffer (0.1M, pH 7.4), and centrifuged at 4° C. for 60 minutes at 13,300 g. the supernatent is retained and diluted to a total of 10 ml with cold tris buffer (0.1M, pH 7.4) to give the stock enzyme solution. Additional dilutions of 2-50 fold are done as necessary to locate optimal enzyme reaction rate in the assay described below.
Substrate solution is prepared at 100 μM or 1.0 μM concentrations of arachidonic acid or linoleic acid in 0.1M tris buffer, pH 9.0 containing 20% ethanol.
The enzyme reaction is followed spectrophotometrically by the appearance of a conjugated diene product at 234 nm. The reaction is monitored at 24° C. using a Gilford Model 2600 spectrophotometer. […] The effects of inhibitors on the reaction are compared with control reactions run under indentical conditions. Routinely, each compounds of the present invention is incubated with the enzyme for five minutes prior to addition of substrate to initiate the reaction. Inhibition expressed as IC50 as molar concentration of the compound required to reduce reaction rate to 50% control.

SMILES | IC50 [1] | IC50 [2] [M] | % Inhibition (LDAH) ([2]; Concentration 2.50 E -5 M) [%]
O=C(Nc1ccc(CCc2ccc(O)c(O)c2)cc1)C(=O)C1=C(O)c2ccccc2S(=O)(=O)C1 [Example 6, N-[4-[2-(3,4-Dihydroxyphenyl)ethyl]phenyl]-4-hydroxy-α-oxo-2H-1-benzothiopyran-3-acetamide, 1,1-dioxide] | 2e-05 M and 2.1e-05 M | – | –
COc1ccc(CCc2ccc(NC(=O)C3Oc4cc5ccccc5cc4C3=O)cc2)cc1OC (stereo not shown) [Example 101, Naphtho[2,3-b]furan-2-carboxamide, N-[4-[2-(3,4-dimethoxyphenyl)ethyl]phenyl]-2,3-dihydroxy-3-oxo] | 8.5e-06 M | – | 0.0
COc1cc(CCc2ccc(NC(=O)C3Oc4ccc5ccccc5c4C3=O)cc2)ccc1O (stereo not shown) [Example 110, Naphtho[2,1-b]furan-2-carboxamide, N-[4-[2-(4-hydroxy-3-methoxyphenyl)ethyl]phenyl]-1,2-dihydro-1-oxo] | 6.04e-06 M and 6.35e-06 M | – | –
COc1ccc(CCc2ccc(NC(=O)C(=O)c3oc4ccccc4c3O)cc2)cc1OC [Example 121, 2-Benzofuranacetamide, N-[4-[2-(3,4-dimethoxyphenyl)ethyl]phenyl]-3-hydroxy-α-oxo] | 7.6e-06 M | 1.6e-06 | –
O=C(Nc1ccc(CCc2ccc(O)c(O)c2)cc1)C(=O)C1Oc2ccccc2C1=O (stereo not drawn) [Example 126, 2-Benzofuranacetamide, N-[4-[2-(3,4-Dihydroxyphenyl)ethyl]phenyl]-2,3-dihydro-α,3-dioxo-] | 3.55e-06 M and 2.17e-06 M | – | –
O=C(Nc1ccc(CCc2ccc(Cl)cc2)cc1)c1sc2ccccc2c1O [Example 145, Benzo[b]thiophene-2-carboxamide, N-[4-[2-(4-chlorophenyl)ethyl]phenyl]-3-hydroxy] | 1.21e-05 M | – | –
COc1ccc(CCc2ccc(NC(=O)c3oc4c5ccccc5n(C)c4c3O)cc2)cc1OC [Example 161, 4H-Furo[3,2-b]indole-2-carboxamide, N-[4-[2-(3,4-dimethoxyphenyl)ethyl]phenyl]-3-hydroxy-4-methyl] | 9e-06 M | – | –

More lines, now with the values ahead:

IC50 [1] | IC50 [2] [M] | % Inhibition (LDAH) ([2]; Concentration 2.50 E -5 M) [%] | SMILES
7e-07 M | 8.2e-06 | – | O=C(Nc1ccc(CCc2ccc(O)c(O)c2)cc1)C1=C(O)c2ccccc2S(=O)(=O)C1 [Example 21, N-[4-[2-(3,4-Dihydroxyphenyl)ethyl]phenyl]-4-hydroxy-2H-1-benzothiopyran-3-carboxamide, 1,1-dioxide]
5e-06 M | – | – | COc1cc(CCc2ccc(NC(=O)C3=C(O)c4ccccc4S(=O)(=O)C3)cc2)ccc1O [Example 70, 2H-1-Benzothiopyran-3-carboxamide, 4-hydroxy-N-[4-[2-(4-hydroxy-3-methoxyphenyl)ethyl]phenyl]-, 1,1-dioxide]
4e-07 M | – | – | COc1cc(C=Cc2ccc(NC(=O)C3=C(O)c4ccccc4S(=O)(=O)N3C)cc2)ccc1O [Example 87, 2H-1,2-Benzothiazine-3-carboxamide, 4-hydroxy-N-[4-[2-(4-hydroxy-3-methoxyphenyl)ethenyl]phenyl]-2-methyl, 1,1-dioxide]
7.6e-07 M | 2.3e-06 | – | O=C(Nc1ccc(CCc2ccc(O)c(O)c2)cc1)c1oc2ccc3ccccc3c2c1O [Example 122, Naphtho[2,1-b]furan-2-carboxamide, N-[4-[2-(3,4-dihydroxyphenyl)ethyl]phenyl]-1-hydroxy-]
4.2e-06 M | 6.5e-06 | – | O=C(Nc1ccc(CCc2ccc(O)c(O)c2)cc1)c1oc2ccccc2c1O [Example 124, 2-Benzofurancarboxamide, N-[4-[2-(3,4-dihydroxyphenyl)ethyl]phenyl]-3-hydroxy]
4.01e-06 M | 6.1e-06 | – | O=C(Nc1ccc(CCc2ccc(O)c(O)c2)cc1)c1oc2c(ccc3ccccc32)c1O [Example 125, Naphtho[1,2-b]furan-2-carboxamide, N-[4-[2-(3,4-dihydroxyphenyl)ethyl]phenyl]-3-hydroxy]
5e-07 M | 1.6e-06 | – | O=C(Nc1ccc(CCc2ccc(O)c(O)c2)cc1)C(=O)C1Oc2cc3ccccc3cc2C1=O (stereo not shown) [Example 129]
1.8e-06 M | 4.7e-06 | – | O=C(Nc1ccc(CCc2ccc(O)c(O)c2)cc1)C(=O)C1=C(O)c2ccccc2OC1 [Example 150]
4.8e-06 M | – | – | COc1ccc2c(c1)c1c(n2-c2ccccc2)C(=O)C(C(=O)Nc2ccc(CCc3ccc(OC)c(OC)c3)cc2)O1 (stereo not shown) [Example 158]
1.18e-06 M | – | – | Cn1c2ccccc2c2oc(C(=O)Nc3ccc(CCc4ccc(O)c(O)c4)cc3)c(O)c21 [Example 159, 4H-Furo[3,2-b]indole-2-carboxamide, N-[4-[2-(3,4-Dihydroxyphenyl)ethyl]phenyl]-3-hydroxy-4-methyl]
